Experimental data reported in ChEMBL document CHEMBL1153884, “Oligonucleotide-polyamine conjugates: influence of length and position of 2'-attached polyamines on duplex stability and antisense effect” (2009).

Columns and labels:
Nucleic Acid [1] = assay: Duplex stability of DNA counter strand assessed as melting temperature; format: nucleic-acid assay
Nucleic Acid [2] = assay: Duplex stability of RNA counter strand assessed as melting temperature; format: nucleic-acid assay

| Compound | Tm (Nucleic Acid [1]) [°C] | Tm (Nucleic Acid [2]) [°C] |
| --- | --- | --- |
| Cc1cn([C@@H]2O[C@H](CO)CN2c2ncnc3c2ncn3[C@@H]2O[C@H](COP(=O)(O)O[C@H]3[C@@H](O)[C@H](n4cnc5c(=O)[nH]c(N)nc54)O[C@@H]3COP(=O)(O)O[C@H]3[C@@H](O)[C@H](n4ccc(N)nc4=O)O[C@@H]3COP(=O)(O)O[C@H]3[C@@H](O)[C@H](n4cnc5c(=O)[nH]c(N)nc54)O[C@@H]3COP(=O)(O)O[C@H]3C[C@H](n4cc(C)c(=O)[nH]c4=O)O[C@@H]3COP(=O)(O)O[C@H]3[C@@H](O)[C@H](n4cnc5c(=O)[nH]c(N)nc54)O[C@@H]3COP(=O)(O)O[C@H]3[C@@H](O)[C@H](n4ccc(N)nc4=O)O[C@@H]3COP(=O)(O)O[C@H]3[C@@H](O)[C@H](n4cnc5c(=O)[nH]c(N)nc54)O[C@@H]3COP(=O)(O)O[C@H]3[C@@H](O)[C@H](n4ccc(N)nc4=O)O[C@@H]3COP(=O)(O)O[C@H]3[C@@H](O)[C@H](n4ccc(N)nc4=O)O[C@@H]3COP(=O)(O)O[C@H]3[C@@H](O)[C@H](n4cnc5c(N)ncnc54)O[C@@H]3COP(=O)(O)O[C@H]3[C@@H](NCCCNCCCCNCCCN)[C@H](n4ccc(=O)[nH]c4=O)O[C@@H]3CO)[C@@H](OP(=O)(O)OC[C@H]3O[C@@H](n4ccc(N)nc4=O)[C@H](O)[C@@H]3OP(=O)(O)OC[C@H]3O[C@@H](n4ccc(N)nc4=O)[C@H](O)[C@@H]3OP(=O)(O)OC[C@H]3O[C@@H](n4ccc(N)nc4=O)[C@H](O)[C@@H]3OP(=O)(O)OC[C@H]3O[C@@H](n4cc(C)c(=O)[nH]c4=O)C[C@@H]3OP(=O)(O)OC[C@H]3O[C@@H](n4ccc(N)nc4=O)[C@H](O)[C@@H]3OP(=O)(O)OC[C@H]3O[C@@H](n4ccc(=O)[nH]c4=O)[C@H](NCCCNCCCCNCCCN)[C@@H]3O)[C@H]2O)c(=O)[nH]c1=O | 79.7 | 61.8 |
| Cc1cn([C@H]2C[C@H](OP(=O)(O)OC[C@H]3O[C@@H](n4cnc5c(N)ncnc54)[C@H](O)[C@@H]3OP(=O)(O)OC[C@H]3O[C@@H](n4ccc(N)nc4=O)[C@H](O)[C@@H]3OP(=O)(O)OC[C@H]3O[C@@H](n4ccc(N)nc4=O)[C@H](O)[C@@H]3OP(=O)(O)OC[C@H]3O[C@@H](n4cnc5c(=O)[nH]c(N)nc54)[C@H](O)[C@@H]3OP(=O)(O)OC[C@H]3O[C@@H](n4ccc(N)nc4=O)[C@H](O)[C@@H]3OP(=O)(O)OC[C@H]3O[C@@H](n4cnc5c(=O)[nH]c(N)nc54)[C@H](O)[C@@H]3OP(=O)(O)OC[C@H]3O[C@@H](n4cc(C)c(=O)[nH]c4=O)C[C@@H]3OP(=O)(O)OC[C@H]3O[C@@H](n4cnc5c(=O)[nH]c(N)nc54)[C@H](O)[C@@H]3OP(=O)(O)OC[C@H]3O[C@@H](n4ccc(N)nc4=O)[C@H](O)[C@@H]3OP(=O)(O)OC[C@H]3O[C@@H](n4cnc5c(=O)[nH]c(N)nc54)[C@H](O)[C@@H]3OP(=O)(O)OC[C@H]3O[C@@H](n4cnc5c(N)ncnc54)[C@H](O)[C@@H]3OP(=O)(O)OC[C@H]3O[C@@H](n4ccc(N)nc4=O)[C@H](O)[C@@H]3OP(=O)(O)OC[C@H]3O[C@@H](n4ccc(N)nc4=O)[C@H](O)[C@@H]3OP(=O)(O)OC[C@H]3O[C@@H](n4ccc(N)nc4=O)[C@H](O)[C@@H]3OP(=O)(O)OC[C@H]3O[C@@H](n4cc(C)c(=O)[nH]c4=O)C[C@@H]3OP(=O)(O)OC[C@H]3O[C@@H](n4ccc(N)nc4=O)[C@H](O)[C@@H]3OP(=O)(O)OC[C@H]3O[C@@H](n4ccc(=O)[nH]c4=O)[C@H](NCCCNCCCCNCCCN)[C@@H]3O)[C@@H](CO)O2)c(=O)[nH]c1=O | 80 | 63 |
